Measured values from PubChem BioAssay (NCI).
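GI50 marks 50% less growth. TGI denotes the concentration required for complete inhibition of growth.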

Key:
Assay in all cases: NCI anticancer screen, dose series, 384-well format
HOP-92 NSCLC = tested on: HOP-92 NSCLC
SK-MEL-5 melanoma = tested on: SK-MEL-5 melanoma
MCF7 breast = tested on: MCF7 breast
OVCAR-5 ovarian = tested on: OVCAR-5 ovarian
SW-620 colon = tested on: SW-620 colon
HCT-116 colon = tested on: HCT-116 colon
HOP-62 NSCLC = tested on: HOP-62 NSCLC
SF-295 CNS = tested on: SF-295 CNS
RPMI-8226 leukemia = tested on: RPMI-8226 leukemia
K-562 leukemia = tested on: K-562 leukemia
MALME-3M melanoma = tested on: MALME-3M melanoma
SF-539 CNS = tested on: SF-539 CNS
786-0 renal = tested on: 786-0 renal
SNB-19 CNS = tested on: SNB-19 CNS
NCI-H522 lung = tested on: NCI-H522 lung
TK-10 renal = tested on: TK-10 renal
RXF 393 renal = tested on: RXF 393 renal
UACC-257 melanoma = tested on: UACC-257 melanoma
NCI-H460 NSCLC = tested on: NCI-H460 NSCLC
MOLT-4 leukemia = tested on: MOLT-4 leukemia
ACHN renal = tested on: ACHN renal
SR leukemia = tested on: SR leukemia
A549 NSCLC = tested on: A549 NSCLC
HCT-15 colon = tested on: HCT-15 colon
MDA-MB-231 breast = tested on: MDA-MB-231 breast
COLO 205 colon = tested on: COLO 205 colon
SK-MEL-2 melanoma = tested on: SK-MEL-2 melanoma
NCI-H226 lung = tested on: NCI-H226 lung
UO-31 renal = tested on: UO-31 renal
MDA-MB-468 breast = tested on: MDA-MB-468 breast
HT29 colon = tested on: HT29 colon
SK-OV-3 ovarian = tested on: SK-OV-3 ovarian
NCI-H322M lung = tested on: NCI-H322M lung
HL-60(TB) leukemia = tested on: HL-60(TB) leukemia
SF-268 CNS = tested on: SF-268 CNS
A498 renal = tested on: A498 renal
SN12C renal = tested on: SN12C renal
DU-145 prostate = tested on: DU-145 prostate
BT-549 breast = tested on: BT-549 breast
UACC-62 melanoma = tested on: UACC-62 melanoma
SK-MEL-28 melanoma = tested on: SK-MEL-28 melanoma
NCI-H23 lung = tested on: NCI-H23 lung
M14 melanoma = tested on: M14 melanoma
CAKI-1 renal = tested on: CAKI-1 renal
PC-3 prostate = tested on: PC-3 prostate
OVCAR-3 ovarian = tested on: OVCAR-3 ovarian
T-47D breast = tested on: T-47D breast
LOX IMVI melanoma = tested on: LOX IMVI melanoma
KM12 colon = tested on: KM12 colon
OVCAR-4 ovarian = tested on: OVCAR-4 ovarian
NCI/ADR-RES ovarian = tested on: NCI/ADR-RES ovarian
CCRF-CEM leukemia = tested on: CCRF-CEM leukemia
MDA-MB-435 melanoma = tested on: MDA-MB-435 melanoma
HCC-2998 colon = tested on: HCC-2998 colon
U251 glioblastoma = tested on: U251 glioblastoma
OVCAR-8 ovarian = tested on: OVCAR-8 ovarian
IGROV1 ovarian = tested on: IGROV1 ovarian
EKVX NSCLC = tested on: EKVX NSCLC
SNB-75 CNS = tested on: SNB-75 CNS
HS 578T breast = tested on: HS 578T breast

## O=C(NS(=O)(=O)c1ccc(NC[C@H]2COCCO2)c([N+](=O)[O-])c1)c1ccc(N2CCN(CC3=C(c4ccc(Cl)cc4)CC4(CCC4)CC3)CC2)cc1Oc1cnc2[nH]ccc2c1
HOP-92 NSCLC
  GI50: 1.56 µM
  TGI: 3.1 µM
SK-MEL-5 melanoma
  GI50: 1.81 µM
  TGI: 3.33 µM
MCF7 breast
  GI50: 2.65 µM
  TGI: 8.8 µM
OVCAR-5 ovarian
  GI50: 2.15 µM
  TGI: 4.28 µM
SW-620 colon
  GI50: 3.96 µM
  TGI: 12.9 µM
HCT-116 colon
  GI50: 2.3 µM
  TGI: 5.47 µM
HOP-62 NSCLC
  GI50: 2.24 µM
  TGI: 5.19 µM
SF-295 CNS
  GI50: 1.39 µM
  TGI: 3.24 µM
RPMI-8226 leukemia
  GI50: 1.02 µM
  TGI: 2.18 µM
K-562 leukemia
  GI50: 3.32 µM
  TGI: 11.1 µM
MALME-3M melanoma
  GI50: 2.28 µM
  TGI: 4.37 µM
SF-539 CNS
  GI50: 1.97 µM
  TGI: 4.22 µM
786-0 renal
  GI50: 2.41 µM
  TGI: 6.75 µM
SNB-19 CNS
  GI50: 3.97 µM
  TGI: 14.7 µM
NCI-H522 lung
  GI50: 3 µM
  TGI: 7.32 µM
TK-10 renal
  GI50: 2.69 µM
  TGI: 8.48 µM
RXF 393 renal
  GI50: 1.34 µM
  TGI: 2.94 µM
UACC-257 melanoma
  GI50: 2.17 µM
  TGI: 4.31 µM
NCI-H460 NSCLC
  GI50: 1.65 µM
  TGI: 3.98 µM
MOLT-4 leukemia
  GI50: 0.814 µM
  TGI: 2.08 µM
ACHN renal
  GI50: 2.37 µM
  TGI: 6.63 µM
SR leukemia
  GI50: 1.13 µM
  TGI: 2.35 µM
A549 NSCLC
  GI50: 2.34 µM
  TGI: 7.54 µM
HCT-15 colon
  GI50: 2.02 µM
  TGI: 4.07 µM
MDA-MB-231 breast
  GI50: 2.06 µM
  TGI: 4.32 µM
COLO 205 colon
  GI50: 2.26 µM
  TGI: 4.27 µM
SK-MEL-2 melanoma
  GI50: 1.99 µM
  TGI: 3.69 µM
NCI-H226 lung
  GI50: 1.98 µM
  TGI: 4.2 µM
UO-31 renal
  GI50: 2.1 µM
  TGI: 4.75 µM
MDA-MB-468 breast
  GI50: 1.83 µM
  TGI: 3.86 µM
HT29 colon
  GI50: 2.32 µM
  TGI: 5.17 µM
SK-OV-3 ovarian
  GI50: 2.91 µM
  TGI: 7.58 µM
NCI-H322M lung
  GI50: 2.79 µM
  TGI: 6.65 µM
HL-60(TB) leukemia
  GI50: 0.0239 µM
  TGI: 1.24 µM
SF-268 CNS
  GI50: 3.32 µM
  TGI: 8.91 µM
A498 renal
  GI50: 1.86 µM
  TGI: 5.09 µM
SN12C renal
  GI50: 2.52 µM
  TGI: 7.27 µM
DU-145 prostate
  GI50: 2.82 µM
  TGI: 7.77 µM
BT-549 breast
  GI50: 2.63 µM
  TGI: 5.74 µM
UACC-62 melanoma
  GI50: 1.96 µM
  TGI: 3.78 µM
SK-MEL-28 melanoma
  GI50: 2.53 µM
  TGI: 5.49 µM
NCI-H23 lung
  GI50: 1.89 µM
  TGI: 4.05 µM
M14 melanoma
  GI50: 2.1 µM
  TGI: 4.14 µM
CAKI-1 renal
  GI50: 2.17 µM
  TGI: 5.11 µM
PC-3 prostate
  GI50: 2.12 µM
  TGI: 5.15 µM
OVCAR-3 ovarian
  GI50: 2 µM
  TGI: 3.91 µM
T-47D breast
  GI50: 2.92 µM
  TGI: 9.74 µM
LOX IMVI melanoma
  GI50: 2.8 µM
  TGI: 5.3 µM
KM12 colon
  GI50: 2.51 µM
  TGI: 6.15 µM
OVCAR-4 ovarian
  GI50: 2.64 µM
  TGI: 6.47 µM
NCI/ADR-RES ovarian
  GI50: 4.66 µM
  TGI: 16.7 µM
CCRF-CEM leukemia
  GI50: 1.34 µM
  TGI: 2.64 µM
MDA-MB-435 melanoma
  GI50: 2.38 µM
  TGI: 5.03 µM
HCC-2998 colon
  GI50: 1.81 µM
  TGI: 3.37 µM
U251 glioblastoma
  GI50: 2.34 µM
  TGI: 5.35 µM
OVCAR-8 ovarian
  GI50: 2.99 µM
  TGI: 9.88 µM
IGROV1 ovarian
  GI50: 1.84 µM
  TGI: 4.31 µM

## FC(F)(F)c1cc(-c2ncn(/C=C\c3nnco3)n2)cc(C(F)(F)F)c1
HOP-92 NSCLC
  GI50: 0.13 µM
  TGI: 11 µM
SK-MEL-5 melanoma
  GI50: 0.0736 µM
  TGI: 0.252 µM
EKVX NSCLC
  GI50: 0.184 µM
  TGI: 9.92 µM
MCF7 breast
  GI50: 0.0191 µM
  TGI: > 100 µM
OVCAR-5 ovarian
  GI50: 0.0642 µM
  TGI: 0.588 µM
HCT-116 colon
  GI50: < 0.01 µM
  TGI: 0.35 µM
HOP-62 NSCLC
  GI50: 0.0318 µM
  TGI: 0.231 µM
SF-295 CNS
  GI50: 0.0169 µM
  TGI: 2.3 µM
RPMI-8226 leukemia
  GI50: < 0.01 µM
  TGI: < 0.01 µM
MALME-3M melanoma
  GI50: 0.123 µM
  TGI: 0.425 µM
SF-539 CNS
  GI50: < 0.01 µM
  TGI: 0.0112 µM
SNB-19 CNS
  GI50: 0.0583 µM
  TGI: 1.13 µM
NCI-H522 lung
  GI50: < 0.01 µM
  TGI: 0.118 µM
SNB-75 CNS
  GI50: < 0.01 µM
  TGI: 0.113 µM
TK-10 renal
  GI50: 0.0164 µM
  TGI: 0.143 µM
RXF 393 renal
  GI50: < 0.01 µM
  TGI: 0.706 µM
UACC-257 melanoma
  GI50: 0.239 µM
  TGI: 2.47 µM
NCI-H460 NSCLC
  GI50: < 0.01 µM
  TGI: 0.0795 µM
MOLT-4 leukemia
  GI50: < 0.01 µM
  TGI: < 0.01 µM
ACHN renal
  GI50: 0.0673 µM
  TGI: 8.77 µM
SR leukemia
  GI50: < 0.01 µM
  TGI: < 0.01 µM
A549 NSCLC
  GI50: 0.0101 µM
  TGI: 11.3 µM
HCT-15 colon
  GI50: 0.0344 µM
  TGI: 0.493 µM
MDA-MB-231 breast
  GI50: < 0.01 µM
  TGI: 0.142 µM
COLO 205 colon
  GI50: < 0.01 µM
  TGI: 1.98 µM
NCI-H226 lung
  GI50: < 0.01 µM
  TGI: 0.017 µM
MDA-MB-468 breast
  GI50: 0.154 µM
  TGI: 0.381 µM
HT29 colon
  GI50: < 0.01 µM
  TGI: 0.719 µM
SK-OV-3 ovarian
  GI50: < 0.01 µM
  TGI: 12.5 µM
NCI-H322M lung
  GI50: 0.0506 µM
  TGI: 2.58 µM
HL-60(TB) leukemia
  GI50: < 0.01 µM
  TGI: 0.0544 µM
SF-268 CNS
  GI50: < 0.01 µM
  TGI: 0.558 µM
A498 renal
  GI50: < 0.01 µM
  TGI: 0.0822 µM
SN12C renal
  GI50: 0.194 µM
  TGI: 1.51 µM
DU-145 prostate
  GI50: 0.119 µM
  TGI: 0.514 µM
BT-549 breast
  GI50: < 0.01 µM
  TGI: 0.0238 µM
UACC-62 melanoma
  GI50: 0.0125 µM
  TGI: 0.242 µM
SK-MEL-28 melanoma
  GI50: 0.0338 µM
  TGI: 0.386 µM
NCI-H23 lung
  GI50: < 0.01 µM
  TGI: 1.95 µM
M14 melanoma
  GI50: 0.108 µM
  TGI: 0.348 µM
CAKI-1 renal
  GI50: < 0.01 µM
  TGI: 18.9 µM
HS 578T breast
  GI50: < 0.01 µM
  TGI: 0.878 µM
PC-3 prostate
  GI50: < 0.01 µM
  TGI: 0.0381 µM
OVCAR-3 ovarian
  GI50: < 0.01 µM
  TGI: 0.0966 µM
T-47D breast
  GI50: 0.19 µM
  TGI: 6.28 µM
LOX IMVI melanoma
  GI50: 0.0423 µM
  TGI: 0.206 µM
KM12 colon
  GI50: 0.139 µM
  TGI: 3.05 µM
OVCAR-4 ovarian
  GI50: 0.179 µM
  TGI: 0.662 µM
NCI/ADR-RES ovarian
  GI50: < 0.01 µM
  TGI: 1.33 µM
MDA-MB-435 melanoma
  GI50: 0.0207 µM
  TGI: 0.0825 µM
HCC-2998 colon
  GI50: 0.0335 µM
  TGI: 0.334 µM
U251 glioblastoma
  GI50: 0.0195 µM
  TGI: 0.19 µM
OVCAR-8 ovarian
  GI50: < 0.01 µM
  TGI: 1.21 µM
IGROV1 ovarian
  GI50: 0.104 µM
  TGI: 2.89 µM
